Earlier results in patent EP0307115A1, “Phenol esters” (IMPERIAL CHEMICAL INDUSTRIES PLC, priority 1987, dated 1989).

Conditions: dosed orally in man

absorbed from the gastrointestinal tract, extent of the administered dose: 9-10%
Structure (SMILES): O=C(NCCNCC(O)COc1ccc(O)cc1)N1CCOCC1 (racemic) [xamoterol, N-(2-[(RS)-2-hydroxy-3-(4-hydroxyphenoxy)-propylamino]ethyl)morpholine-4-carboxamide]
